Measured values from patent US5294617A, “Angiotensin II receptor blocking 2,3,6 substituted quinazolinones” (American Cyanamid Company, priority 1993, dated 1994).
Several values for one entry are separate records, joined by “and”; a condition that tells them apart may be missing. Equal entries are not always repeated.

System: ANGIOTENSIN II (AII) VASOPRESSOR RESPONSE
Test: AII Challenge: angiotensin II vasopressor response in conscious spontaneously hypertensive rats
Format: in vivo, Conscious Male Okamoto-Aoki SHR (rat)
Settings: for % Inhibition / Average Change: SHR n=2; for Response After AII / Response Change: individual rat, SHR
Excerpt: By administering a compound of this invention to a rat, and then challenging with angiotensin II, a blockage of the vasopressor response is realized.
Conscious Male Okamoto-Aoki SHR, 16-20 weeks old, weighing approximately 330 g are purchased from Charles River Labs (Wilmington, Mass.). Conscious rats are restrained in a supine position with elastic tape. The area at the base of the tail is locally anesthetized by subcutaneous infiltration with 2% procaine. The ventral caudal artery and vein are isolated, and a cannula made of polyethylene (PE) 10-20 tubing (fused together by heat) is passed into the lower abdominal aorta and vena cava, respectively. The cannula is secured, heparinized (1,000 I.U./ml), sealed and the wound is closed. The animals are placed in plastic restraining cages in an upright position. The cannula is attached to a Statham P23Db pressure transducer, and pulsatile blood pressure is recorded to 10-15 minutes with a Gould Brush recorder. (Chan et al., (Drug Development Res., 18:75-94, 1989).
Angiotensin II (human sequence, Sigma Chem. Co., St. Louis, Mo.) of 0.05 and 0.1 ug/kg i.v. is injected into all rats (predosing response). Then a test compound, vehicle or a known angiotensin II antagonist is administered i.v., i.p. or orally to each set of rats. The two doses of angiotensin II are given to each rat again at 30, 60, 90, 120, 180, 240 and 300 minutes post dosing the compound or vehicle. The vasopressor response of angiotensin II is measured for the increase in systolic blood pressure in mmHg. The percentage of antagonism or blockade of the vasopressor response of angiotensin II by a compound is calculated using the vasopressor response (increase in systolic blood pressure) of angiotensin II of each rat predosing the compound as 100%. A compound is considered active if at 30 mg/kg i.v. it antagonized at least 50% of the response.

[1] = 2 mg/kg i.v., AII 0.05 mcg/kg IV, 30 min post dose
[2] = 2 mg/kg i.v., AII 0.05 mcg/kg IV, 60 min post dose
[3] = 2 mg/kg i.v., AII 0.05 mcg/kg IV, 90 min post dose
[4] = 2 mg/kg i.v., AII 0.05 mcg/kg IV, 120 min post dose
[5] = 2 mg/kg i.v., AII 0.05 mcg/kg IV, 180 min post dose
[6] = 2 mg/kg i.v., AII 0.1 mcg/kg IV, 30 min post dose
[7] = 2 mg/kg i.v., AII 0.1 mcg/kg IV, 60 min post dose
[8] = 2 mg/kg i.v., AII 0.1 mcg/kg IV, 90 min post dose
[9] = 2 mg/kg i.v., AII 0.1 mcg/kg IV, 120 min post dose
[10] = 2 mg/kg i.v., AII 0.1 mcg/kg IV, 180 min post dose
[11] = 10 mg/kg i.v., AII 0.05 mcg/kg IV, 30 min post dose
[12] = 10 mg/kg i.v., AII 0.05 mcg/kg IV, 60 min post dose
[13] = 10 mg/kg i.v., AII 0.05 mcg/kg IV, 90 min post dose
[14] = 10 mg/kg i.v., AII 0.05 mcg/kg IV, 120 min post dose
[15] = 10 mg/kg i.v., AII 0.05 mcg/kg IV, 180 min post dose
[16] = 10 mg/kg i.v., AII 0.05 mcg/kg IV, 240 min post dose
[17] = 10 mg/kg i.v., AII 0.05 mcg/kg IV, 300 min post dose
[18] = 10 mg/kg i.v., AII 0.1 mcg/kg IV, 30 min post dose
[19] = 10 mg/kg i.v., AII 0.1 mcg/kg IV, 60 min post dose
[20] = 10 mg/kg i.v., AII 0.1 mcg/kg IV, 90 min post dose
[21] = 10 mg/kg i.v., AII 0.1 mcg/kg IV, 120 min post dose
[22] = 10 mg/kg i.v., AII 0.1 mcg/kg IV, 180 min post dose
[23] = 10 mg/kg i.v., AII 0.1 mcg/kg IV, 240 min post dose
[24] = 10 mg/kg i.v., AII 0.1 mcg/kg IV, 300 min post dose
[25] = 2 mg/kg i.v., AII 0.05 mcg/kg IV, 30 min post dose, 2 mg/kg
[26] = 2 mg/kg i.v., AII 0.05 mcg/kg IV, 60 min post dose, 2 mg/kg
[27] = 2 mg/kg i.v., AII 0.05 mcg/kg IV, 90 min post dose, 2 mg/kg
[28] = 2 mg/kg i.v., AII 0.05 mcg/kg IV, 180 min post dose, 2 mg/kg
[29] = 2 mg/kg i.v., AII 0.1 mcg/kg IV, 30 min post dose, 2 mg/kg
[30] = 2 mg/kg i.v., AII 0.1 mcg/kg IV, 60 min post dose, 2 mg/kg

With `CCCCc1nc2ccc([C@@H]3C[C@H](CO)ON3C)cc2c(=O)n1Cc1ccc(-c2ccccc2-c2nn[nH]n2)cc1` (relative stereo) [Example 15, CIS-2-butyl-6-5-(hydroxymethyl)-2-methyl-3-isoxazolidinyl]-3-[[2'-(1H-tetrazol-5[1,1'-biphenyl]-4-yl]methyl]-4(3H)-quinazolinone] the “% Inhibition” value [1] was 43%, the “Average Change” value [1] was 26 mmHg and the “% Inhibition” value [2] was 67%. For the same compound, the “Average Change” value [2] was 15 mmHg, the “% Inhibition” value [3] was 67% and the “Average Change” value [3] was 15 mmHg. The “% Inhibition” value [4] was 67%, the “Average Change” value [4] was 15 mmHg and the “% Inhibition” value [5] was 43%. The “Average Change” value [5] was 26 mmHg, the “% Inhibition” value [6] was 38% and the “Average Change” value [6] was 30 mmHg. For the same compound, the “% Inhibition” value [7] was 45%, the “Average Change” value [7] was 26.5 mmHg and the “% Inhibition” value [8] was 48%. For the same compound, the “Average Change” value [8] was 25 mmHg, the “% Inhibition” value [9] was 62% and the “Average Change” value [9] was 18.5 mmHg. For the same compound, the “% Inhibition” value [10] was 54%, the “Average Change” value [10] was 22.5 mmHg and the “% Inhibition” value [11] was 78%. For the same compound, the “Average Change” value [11] was 10 mmHg, the “% Inhibition” value [12] was 99% and the “Average Change” value [12] was 0.5 mmHg. The “% Inhibition” value [13] was 89%, the “Average Change” value [13] was 5 mmHg and the “% Inhibition” value [14] was 72%. The “Average Change” value [14] was 12.5 mmHg, the “% Inhibition” value [15] was 56% and the “Average Change” value [15] was 20 mmHg. The “% Inhibition” value [16] was 67%, the “Average Change” value [16] was 15 mmHg and the “% Inhibition” value [17] was 70%. The “Average Change” value [17] was 13.5 mmHg, the “% Inhibition” value [18] was 100% and the “Average Change” value [18] was 0 mmHg. For the same compound, the “% Inhibition” value [19] was 80%, the “Average Change” value [19] was 9 mmHg and the “% Inhibition” value [20] was 72%. The “Average Change” value [20] was 12.5 mmHg, the “% Inhibition” value [21] was 72% and the “Average Change” value [21] was 12.5 mmHg. The “% Inhibition” value [22] was 52%, the “Average Change” value [22] was 21.5 mmHg and the “% Inhibition” value [23] was 52%. The “Average Change” value [23] was 21.5 mmHg, the “% Inhibition” value [24] was 28% and the “Average Change” value [24] was 32,5 mmHg. For the same compound, the “Response After AII” value [25] was 237 mmHg and 255 mmHg, the “Response Change” value [25] was 22 mmHg and 30 mmHg and the “Response After AII” value [2] was 245 mmHg. For the same compound, the “Response After AII” value [26] was 225 mmHg, the “Response Change” value [26] was 25 mmHg and 5 mmHg and the “Response After AII” value [27] was 230 mmHg and 235 mmHg. The “Response Change” value [27] was 20 mmHg and 10 mmHg, the “Response Change” value [4] was 15 mmHg and the “Response After AII” value (2 mg/kg i.v., AII 0.05 mcg/kg IV, 120 min post dose, 2 mg/kg) was 220 mmHg and 230 mmHg. For the same compound, the “Response After AII” value [28] was 220 mmHg and 250 mmHg, the “Response Change” value [28] was 17 mmHg and 35 mmHg and the “Response After AII” value [29] was 245 mmHg and 250 mmHg. For the same compound, the “Response Change” value [29] was 25 mmHg and 35 mmHg, the “Response After AII” value [30] was 255 mmHg and 235 mmHg and the “Response Change” value [30] was 35 mmHg and 18 mmHg.
